{
  "source": "patent US20080255055A1",
  "about": "“Use of Derivatives of Dipeptides for the Manufacture of a Medicament for the Treamtent of Microbial Infections” (NEOBIOTICS AB, priority 2004, published 2008)",
  "key": {"[1]": {"system": "bacteria", "assay": "Anti-bacterial activity (tables of particularly interesting compounds)", "assay_type": "cell-based", "set-up": "key: + indicates that the compound show effects"}, "[2]": {"system": "L. monocytogenes", "assay": "Agar well diffusion", "details": "40 ul of 1 mg/ml in DMSO"}, "[3]": {"system": "CNS incl. resistant and multiresistant MRSE", "assay": "Agar well diffusion", "details": "40 ul of 1 mg/ml in DMSO"}, "[4]": {"system": "Streptococcus: group G", "assay": "Agar well diffusion", "details": "40 ul of 1 mg/ml in DMSO"}, "[5]": {"system": "α-haemolytic Streptococci", "assay": "Agar well diffusion", "details": "40 ul of 1 mg/ml in DMSO"}, "[6]": {"system": "S. pneumoniae", "assay": "Agar well diffusion", "details": "40 ul of 1 mg/ml in DMSO"}, "[7]": {"system": "Candida albicans ATCC 10231", "assay": "Antifungal MIC in Sabouraud broth", "assay_type": "cell-based", "details": "25° C., 48 h", "protocol": "(§1) The minimal inhibitory concentration (MIC) was determined using a method with Sabouraud broth (Becton Dickinson) and an initial inoculum 10^3-10^4 cfu/ml. Polypropylene 96-well plates (Nunc) were incubated at 25° C. for 48 h (for Candida albicans ATCC 10231) or 7 days (for Aspergillus niger ATCC 16404). The MIC was taken as the lowest drug concentration at which noticeable growth was inhibited. The experiments were performed in duplicate."}, "[8]": {"system": "Aspergillus niger ATCC 16404", "assay": "Antifungal MIC in Sabouraud broth", "assay_type": "cell-based", "details": "25° C., 7 days", "protocol": "as §1"}, "[9]": {"system": "Staphylococci incl. multi-resistant MRSA", "assay": "Agar well diffusion", "details": "for antibacterial effect, Staphylococci incl. multi-resistant MRSA: agar well diffusion, 40 ul of 1 mg/ml in DMSO; for growth inhibition of approximately 100 strain of MRSA: clinical isolates, several with additional antibiotic resistance markers"}, "[10]": {"system": "Streptococcus: group C", "assay": "Agar well diffusion", "details": "40 ul of 1 mg/ml in DMSO"}, "[11]": {"system": "E. coli and other Gram-negatives", "assay": "Agar well diffusion", "details": "for antibacterial effect, E. coli and other Gram-negatives: agar well diffusion, 40 ul of 1 mg/ml in DMSO"}, "[12]": {"system": "Streptococcus: group A", "assay": "Agar well diffusion", "details": "40 ul of 1 mg/ml in DMSO"}, "[13]": {"system": "Streptococcus: group B", "assay": "Agar well diffusion", "details": "40 ul of 1 mg/ml in DMSO"}, "[14]": {"system": "HSV-1 F", "assay": "Virus inhibition analysis and plaque counting test in GMK AH 1 cells", "assay_type": "cell-based, Herpes Simplex Virus", "details": "10 PFU/cell, 48 hours, Cp1 0.4 mM in 1% DMSO, Acyclovir 1.0 mM"}, "[15]": {"system": "labial herpes", "assay": "Topical application to beginning labial herpes outbreak", "assay_type": "in vivo", "details": "Cp1 in softening cream, 0.2 ml solution (0.1 g/l) on the lip of a person; performed twice"}, "[16]": {"system": "cysteine proteases", "assay": "Protease inhibitory activity", "assay_type": "biochemical"}, "[17]": {"system": "lethal strept challenge", "assay": "Protection against lethal strept challenge", "assay_type": "in vivo", "details": "mouse"}, "[18]": {"assay": "Solubility", "assay_type": "physicochemical"}, "[19]": {"system": "GAS", "assay": "MIC by broth dilution", "assay_type": "cell-based, group A Streptococci", "details": "growth media without DMSO, solubility problems; true MIC might be lower", "protocol": "(§2) The in vitro antibacterial activity of drugs is commonly estimated by testing their minimal inhibitory (MIC) and bactericidal (MBC) concentrations.\n(§3) MIC/MBC determinations were performed by broth dilution according to established procedures, well known for a person skilled in the art."}, "[20]": {"system": "S. aureus", "assay": "MIC by broth dilution", "assay_type": "cell-based", "details": "growth media without DMSO, solubility problems; true MIC might be lower", "protocol": "as §2, §3"}, "[21]": {"system": "poliovirus type 1", "assay_type": "cell-based", "details": "GMK AH 1 cells, 1 PFU/cell, 48 hours; Cp1 0.4 mM in 1% DMSO"}},
  "note": "Non-standard residues stand in square brackets, D forms with d. dPhg = N[C@@H](C(=O)O)c1ccccc1; Phg = N[C@H](C(=O)O)c1ccccc1; code Z = not defined here; Orn = NCCC[C@H](N)C(=O)O; Mpa = O=C(O)CCS",
  "data": [
    {"compound": "Mpa-Phe-Arg-Leu-Val-Phe-Cys-NH2 ([Mpa]FRLVFC-NH2; cysteine pairing not given here)", "values": [
      {"measurement": "Activity Anti-bacterial", "setting": "[1]", "value": "+"}
    ]},
    {"compound": "CC(=O)NC(Cc1ccccc1)C(=O)NCC(NC(=O)C(CC(C)C)NC(=O)C(CCCNC(=N)N)NC(=O)OCc1ccccc1)C(C)C", "note": "(stereo not shown) [[AcPhe^5]Cp1]", "values": [
      {"measurement": "antibacterial effect, L. monocytogenes", "setting": "[2]", "value": "+"},
      {"measurement": "antibacterial effect, CNS incl. resistant and multiresistant MRSE", "setting": "[3]", "value": "+"},
      {"measurement": "antibacterial effect, Streptococcus: group G", "setting": "[4]", "value": "+"},
      {"measurement": "antibacterial effect, α-haemolytic Streptococci", "setting": "[5]", "value": "−"},
      {"measurement": "antibacterial effect, S. pneumoniae", "setting": "[6]", "value": "+"},
      {"measurement": "MIC Candida albicans ATCC 10231", "setting": "[7]", "value": 512, "unit": "µg/mL"},
      {"measurement": "MIC Aspergillus niger ATCC 16404", "setting": "[8]", "value": 256, "unit": "µg/mL"},
      {"measurement": "antibacterial effect, Staphylococci incl. multi-resistant MRSA", "setting": "[9]", "value": "+"},
      {"measurement": "growth inhibition of approximately 100 strain of MRSA", "setting": "[9]", "value": "strongly inhibited in their growth"},
      {"measurement": "antibacterial effect, Streptococcus: group C", "setting": "[10]", "value": "+"},
      {"measurement": "antibacterial effect, E. coli and other Gram-negatives", "setting": "[11]", "value": "−"},
      {"measurement": "antibacterial effect, Streptococcus: group A", "setting": "[12]", "value": "+"},
      {"measurement": "antibacterial effect, Streptococcus: group B", "setting": "[13]", "value": "+"}
    ]},
    {"compound": "CC(C)CC(NC(=O)C(CCCN=C(N)N)NC(=O)OCc1ccccc1)C(=O)N[C@H](CNC(=O)/C=C/c1ccccc1)C(C)C", "note": "(stereo in doubt) [Cp1, (2S)-2-[(N^α-Benzyloxycarbonyl-arginyl-leucyl)-amino]-1-trans-cinnamoylamino-3-methylbutane]", "values": [
      {"measurement": "HSV-1 plaques", "setting": "[14]", "value": "1.0 × 10^3"},
      {"measurement": "antibacterial effect, L. monocytogenes", "setting": "[2]", "value": "+"},
      {"measurement": "antibacterial effect, CNS incl. resistant and multiresistant MRSE", "setting": "[3]", "value": "+"},
      {"measurement": "antibacterial effect, Streptococcus: group G", "setting": "[4]", "value": "+"},
      {"measurement": "time after which symptoms of beginning labial herpes outbreak was gone", "setting": "[15]", "value": "Cp1 was added to a softening cream and 0.2 ml solution (0.1 g/l) was applied to an area of a beginning labial herpes outbreak on the lip of a person. After 3-4 hours the symptoms was gone. The experiment was performed twice."},
      {"measurement": "antibacterial effect, α-haemolytic Streptococci", "setting": "[5]", "value": "−"},
      {"measurement": "protease inhibitory activity", "setting": "[16]", "value": "devoid of any detectable protease inhibitory activity"},
      {"measurement": "antibacterial effect, S. pneumoniae", "setting": "[6]", "value": "+"},
      {"measurement": "protective capacity for lethal strept challenge", "setting": "[17]", "value": "strong protective capacity"},
      {"measurement": "solubility in DMSO", "setting": "[18]; DMSO", "value": "soluble in DMSO to high concentrations"},
      {"measurement": "solubility in water", "setting": "[18]; water", "value": "less soluble in water"},
      {"measurement": "MIC for GAS", "setting": "[19]", "value": "approximately 16 mg/L"},
      {"measurement": "MIC Candida albicans ATCC 10231", "setting": "[7]", "value": "32 µg/ml"},
      {"measurement": "MIC Aspergillus niger ATCC 16404", "setting": "[8]", "value": 64, "unit": "µg/mL"},
      {"measurement": "MIC for S. aureus", "setting": "[20]", "value": "approximately 16 mg/L"},
      {"measurement": "antibacterial effect, Staphylococci incl. multi-resistant MRSA", "setting": "[9]", "value": "+"},
      {"measurement": "growth inhibition of approximately 100 strain of MRSA", "setting": "[9]", "value": "strongly inhibited in their growth"},
      {"measurement": "Polio plaques", "setting": "[21]", "value": "2.6 × 10^5"},
      {"measurement": "antibacterial effect, Streptococcus: group C", "setting": "[10]", "value": "+"},
      {"measurement": "activity against gram-negative bacteria", "setting": "[11]", "value": "low or no activity"},
      {"measurement": "antibacterial effect, E. coli and other Gram-negatives", "setting": "[11]", "value": "−"},
      {"measurement": "antibacterial effect, Streptococcus: group A", "setting": "[12]", "value": "+"},
      {"measurement": "antibacterial effect, Streptococcus: group B", "setting": "[13]", "value": "+"}
    ]},
    {"compound": "cyclo([dY]RLV[dY]RLV)", "values": [
      {"measurement": "Activity Anti-bacterial", "setting": "[1]", "value": "+"}
    ]},
    {"compound": "Z-Arg-Leu-Val-cinnamoylamide", "values": [
      {"measurement": "Activity Anti-bacterial", "setting": "[1]", "value": "+"}
    ]},
    {"compound": "cyclo(FRLVF[Orn]LV)", "values": [
      {"measurement": "Activity Anti-bacterial", "setting": "[1]", "value": "+"}
    ]},
    {"compound": "cyclo(Tyr-Arg-Leu-Val-Tyr-Arg-Leu-Val) (YRLVYRLV; cyclic; printed: Tyr-Arg-Leu-Val-Tyr-Arg-Leu-Val)", "values": [
      {"measurement": "Activity Anti-bacterial", "setting": "[1]", "value": "+"}
    ]},
    {"compound": "cyclo(F[Orn]LVF[Orn]LV)", "values": [
      {"measurement": "Activity Anti-bacterial", "setting": "[1]", "value": "+"}
    ]},
    {"compound": "cyclo(Phe-Arg-Leu-Val-Phe-Arg-Leu-Val) (FRLVFRLV; cyclic; printed: Phe-Arg-Leu-Val-Phe-Arg-Leu-Val)", "values": [
      {"measurement": "Activity Anti-bacterial", "setting": "[1]", "value": "+"}
    ]},
    {"compound": "cyclo([Phg]RLV[Phg]RLV)", "values": [
      {"measurement": "Activity Anti-bacterial", "setting": "[1]", "value": "+"}
    ]},
    {"compound": "Z-Arg-Leu-Val-Phe-NH2 ({code Z}-RLVF-NH2; reading uncertain; also: printed as Z-Arg-Leu-Val-Phe-NH2)", "values": [
      {"measurement": "Activity Anti-bacterial", "setting": "[1]", "value": "+"}
    ]},
    {"compound": "cyclo([dPhg]RLV[dPhg]RLV)", "values": [
      {"measurement": "Activity Anti-bacterial", "setting": "[1]", "value": "+"}
    ]}
  ]
}
